Data reported in patent US6342502B1, “Thieno[2,3-d]pyrimidine diones and their use in the treatment of reversible obstructive airways diseases” (AstraZeneca AB, priority 1997, dated 2002).

SMILES | melting point [°C]
CC(C)Cn1c(=O)n(C)c(=O)c2cc(C(O)c3cccc(F)c3)sc21 (stereo not drawn) [Example 51, 6-[(1-Hydroxy-1-(3-fluorophenyl))methyl]-3-methyl-1l-(2-methylpropyl)thieno[2,3-d]pyrimiidine-2,4-(1H, 3H)-dione] | 54
CC(C)Cn1c(=O)n(C)c(=O)c2cc(C3OC(=N)c4ccccc43)sc21 (stereo not drawn) [Example 81, 6-(3-Imino-1,3-dihydro-benzo[c]furan-1-yl)-3-methyl-1-(2-methylpropyl)thieno[2,3-d]pyrimidine-2,4(1H, 3H)-dione] | 152
CC(C)Cn1c(=O)n(C)c(=O)c2c(NC(=O)OCCO)c(Cc3cccc4ccccc34)sc21 [Example 49, 2-Hydroxyethyl [1,2,3,4-tetrahydro-3-methyl-1-(2-methylpropyl)-6-(1-naphthalenylmethyl)-2,4-dioxothieno[2,3-d]pyrimidin-5-yl]carbamate] | 201 to 202
CC(C)Cn1c(=O)n(C)c(=O)c2cc(C(O)c3ccc([N+](=O)[O-])cc3)sc21 (stereo not drawn) [Example 90, 6-[1-Hydroxy-(4-nitrophenyl)methyl]-3-methyl-1-(2-methylpropyl)thieno[2,3-d]pyrimidin-2,4(1H,3H)-dione] | 127
CC(C)Cn1c(=O)[nH]c(=O)c2cc(Cc3cccc4ccccc34)sc21 [Example 3, 1-(2-Methylpropyl)-6-(1-naphthalenylmethyl)thieno[2,3-d]pyrimidine-2,4(1H,3H)-dione] | 189 to 190
CC(C)Cn1c(=O)n(C)c(=O)c2c(Sc3cccc(N)c3)c(Cc3cccc4ccccc34)sc21 [Example 31, 5-[(3-Aminophenyl)thio]-3-methyl-1-(2-methylpropyl)-6-(1-naphthalenylmethyl)-thieno[2,3-d]pyrimidine-2,4-(1H, 3H)-dione] | 149 to 150
CC(C)Cn1c(=O)n(C)c(=O)c2c(Sc3cccc(O)c3)c(Cc3cccc4ccccc34)sc21 [Example 27, 5-[(3-Hydroxyphenyl)thio]-3-methyl-1-(2-methylpropyl)-6-(1-naphthalenylmethyl)thieno[2,3-d]pyrimidine-2,4-(1H,3H)-dione] | 200 to 201
COC(=O)Nc1cccc(Sc2c(Cc3cccc4ccccc34)sc3c2c(=O)n(C)c(=O)n3CC(C)C)c1 [Example 33] | 167 to 168
CC(C)Cn1c(=O)n(C)c(=O)c2c(NC(=O)N(C)CCO)c(Cc3cccc4ccccc34)sc21 [Example 50] | 151 to 152
CC(C)Cn1c(=O)n(C)c(=O)c2c(SCC(C)O)c(Cc3cccc4ccccc34)sc21 (racemic) [Example 15, (±) 5-[(2-Hydroxypropyl)thio]-3-methyl-1-(2-methylpropyl)-6-(1-naphthalenylmethyl)thieno[2,3-d]pyrimidine-2,4(1H,3H)-dione] | 126 to 128
CC(C)n1c(=O)n(C)c(=O)c2cc(Cc3ccccc3)sc21 [Example 13, 3-Methyl-1-(1-methylethyl)-6-(phenylmethyl)thieno[2,3-d]pyrimidine-2,4(1H,3H)-dione] | 91 to 93
CC(C)Cn1c(=O)n(C)c(=O)c2cc(Cc3ccccc3)sc21 [Example 12, 6-Benzyl-3-methyl-1-(2-methylpropyl)thieno[2,3-d]pyrimidine-2,4(1H,3H)-dione] | 72 to 73
CC(C)Cn1c(=O)n(C)c(=O)c2c(Sc3ccccn3)c(Cc3cccc4ccccc34)sc21 [Example 5, 3-Methyl-1-(2-methylpropyl)-6-(1-naphthalenylmethyl)-5-[(2-pyridinyl)thio]thieno[2,3-d]pyrimidine-2,4(1H,3H)-dione] | 148 to 149
CC(C)Cn1c(=O)n(C)c(=O)c2cc(C(O)c3ccccc3)sc21 (stereo not drawn) [Example 14, 6-[(1-Hydroxy-1-phenyl)methyl]-3-methyl-1-(2-methylpropyl)thieno[2,3-d]pyrimidine-2,4(1H,3H)-dione] | 140 to 142
CC(C)Cn1c(=O)n(C)c(=O)c2c(C(=O)NCC(=O)O)c(Cc3cccc4ccccc34)sc21 [Example 21, 2-{[1,2,3,4-Tetrahydro-3-methyl-1-(2-methylpropyl)-6-(1-naphthalenylmethyl)-2,4-dioxothieno[2,3-d]pyrimidin-5-yl]carboxamido}acetic acid] | 218 to 219
CC(=O)Nc1cccc(C(=O)Nc2ccc(Cc3cc4c(=O)n(C)c(=O)n(CC(C)C)c4s3)cc2)c1 [Example 94] | 230
CC(C)Cn1c(=O)n(C)c(=O)c2c(C(=O)N(C)C)c(Cc3ccccc3)sc21 [Example 89, 1,2,3,4-Tetrahydro-3,N,N-trimethyl-1-(2-methylpropyl)-6-phenylmethy-2,4-dioxothieno[2,3-d]pyrimidine-5-carboxamide] | 144 to 146
CC(C)Cn1c(=O)n(C)c(=O)c2c(Sc3cccc(N(S(C)(=O)=O)S(C)(=O)=O)c3)c(Cc3cccc4ccccc34)sc21 [Example 32, 5-{[3-{(Bis-methanesulfonyl)amino}phenyl]thio}-3-methyl-1-(2-methylpropyl)-6-(1-naphthalenylmethy)theino[2,3d]pyrimidine-2,4(1H, 3H)-dione] | 216 to 217

SMILES | melting point [°C]
CC(C)Cn1c(=O)n(C)c(=O)c2c(Sc3ccc([N+](=O)[O-])cn3)c(Cc3cccc4ccccc34)sc21 [Example 37, 3-Methyl-1-(2-methylpropyl)-6-(1-naphthalenylmethyl)-5-[(5-nitropyridin-2-yl)thio]thieno[2,3-d]pyrimidine-2,4-(1H, 3H)-dione] | 200 to 201
C=C(C)Cn1c(=O)n(C)c(=O)c2cc(Cc3ccc(OC)cc3)sc21 [Example 2, 6-(4-Methoxyphenylmethyl)-3-methyl-1-(2-methyl-2-propenyl)thieno[2,3-d]pyrimidine-2,4(1H,3H)-dione] | 111
CC(C)Cn1c(=O)n(C)c(=O)c2c(S(=O)(=O)c3cccc(O)c3)c(Cc3cccc4ccccc34)sc21 [Example 29] | 209 to 210
CC(C)Cn1c(=O)n(C)c(=O)c2c(Sc3ccc(N)cc3)c(Cc3cccc4ccccc34)sc21 [Example 36, 5-[(4-Aminophenyl)thio]-3-methyl-1-(2-methylpropyl)-6-(1-naphthalenylmethyl)thieno[2,3-d]pyrimidine-2,4-(1H, 3H)-dione] | 177 to 178
CC(C)Cn1c(=O)n(C)c(=O)c2c(SCCCO)c(C(O)c3cccc4ccccc34)sc21 (racemic) [Example 83, (±) 6-(1-Hydroxy-1-[1-naphthalenyl]methyl)-5-([3-hydroxypropyl]thio)-3-methyl-1-(2-methylpropyl)thieno[2,3-d]pyrimidine-2,4(1H,3H)-dione] | 100 to 105
CC(C)Cn1c(=O)n(C)c(=O)c2cc(Cc3cccc(F)c3)sc21 [Example 52, 6-[(3-Fluorophenyl)methyl]-3-methyl-1-(2-methylpropyl)thieno[2,3-d]pyrimidine-2,4-(1H, 3H)-dione] | 76 to 78
CC(C)Cn1c(=O)n(C)c(=O)c2c(SCCCC(=O)O)c(Cc3cccc4ccccc34)sc21 [Example 8, 4-[(1,2,3,4-Tetrahydro-3-methyl-1-(2-methylpropyl)-6-(1-naphthalenylmethyl)-2,4-dioxothieno[2,3-d]pyrimidin-5-yl)thio]butanoic acid] | 172 to 173
COC(=O)CCCSc1c(Cc2cccc3ccccc23)sc2c1c(=O)n(C)c(=O)n2CC(C)C [Example 7, Methyl 4-[(1,2,3,4-tetrahydro-3-methyl-1-(2-methylpropyl)-6-(1-naphthalenylmethyl)-2,4-dioxothieno[2,3-d]pyrimidin-5-y)thio]butanoate] | 111 to 112
CC(C)Cn1c(=O)n(C)c(=O)c2c(SCCC(C)O)c(Cc3cccc4ccccc34)sc21 (racemic) [Example 85, (±)-5-[(3-Hydroxybutyl)thio]-3-methyl-1-(2-methylpropyl)-6-(1-naphthalenylmethyl)thieno2,3-d]pyrimidine-2,4(1H,3H)-dione] | 162 to 163
CC(C)Cn1c(=O)n(C)c(=O)c2c(SCCCN=[N+]=[N-])c(Cc3cccc4ccccc34)sc21 [Example 39, 5-[(3-Azidopropyl)thio]-3-methyl-1-(2-methylpropyl)-6-(1-naphthalenylmethyl)thieno[2,3-d]pyrimidine-2,4(1H,3H)-dione] | 94 to 96
CC(C)Cn1c(=O)n(C)c(=O)c2c(NC(=O)NCCO)c(Cc3cccc4ccccc34)sc21 [Example 48] | 227 to 228
COC(=O)CCCS(=O)(=O)c1c(Cc2cccc3ccccc23)sc2c1c(=O)n(C)c(=O)n2CC(C)C [Example 10, Methyl 4-[(1,2,3,4-tetrahydro-3-methyl-1-(2-methylpropyl)-6-(1-naphthalenylmethyl)-2,4-dioxothieno[2,3-d]pyrimidin-5-yl)sulfonyl]butanoate] | 122 to 124
CC(C)Cn1c(=O)n(C)c(=O)c2c(Sc3ccc(N)cn3)c(Cc3cccc4ccccc34)sc21 [Example 87, 5-[(5-Amino-2-pyridinyl)thio]-3-methyl-1-(2-methylpropyl)-6-(1-naphthalenylmethyl)thieno[2,3-d]pyrimidine-2,4(1H,3H)-dione] | 208 to 209
CC(C)Cn1c(=O)n(C)c(=O)c2c(S(=O)(=O)CCCC(=O)O)c(Cc3cccc4ccccc34)sc21 [Example 11, 4-[(1,2,3,4-Tetrahydro-3-methyl-1-(2-methylpropyl)-6-(1-naphthalenylmethyl)-2,4-dioxothieno[2,3-d]pyrimidin-5-yl)sulfonyl]butanoic acid] | 174 to 181
CC(C)Cn1c(=O)n(C)c(=O)c2c(SCCCO)c(Cc3cccc(F)c3)sc21 [Example 86] | 99 to 100
CC(C)Cn1c(=O)n(C)c(=O)c2cc(Cc3ccc(N)cc3)sc21 [Example 92, 6-(4-Aminophenylmethyl)-3-methyl-1-(2-methylpropyl)thieno[2,3-d]pyrimidine-2,4-(1H, 3H)-dione] | 104
CC(=O)Nc1cccc(Sc2c(Cc3cccc4ccccc34)sc3c2c(=O)n(C)c(=O)n3CC(C)C)c1 [Example 34, 5-[(3-Acetamidophenyl)thio]-3-methyl-1-(2-methylpropyl)-6-(1-naphthalenylmethyl)thieno[2,3-d]pyrimidine-2,4-(1H, 3H)-dione] | 173 to 174
CC(C)Cn1c(=O)n(C)c(=O)c2cc(Cc3cccc4ccccc34)sc21 [Example 4] | 137 to 138
